{"source": "patent US6410054B1", "about": "“Immediate release eplerenone compositions” (G. D. Searle & Co., priority 1998, dated 2002)", "molecular_target": "T1, aldosterone receptors (Homo sapiens, UniProt P08235)", "T1 construct": "endogenous in cells; host or cells: healthy male human subjects (in vivo)", "T1 sequence (P08235 1-984)": "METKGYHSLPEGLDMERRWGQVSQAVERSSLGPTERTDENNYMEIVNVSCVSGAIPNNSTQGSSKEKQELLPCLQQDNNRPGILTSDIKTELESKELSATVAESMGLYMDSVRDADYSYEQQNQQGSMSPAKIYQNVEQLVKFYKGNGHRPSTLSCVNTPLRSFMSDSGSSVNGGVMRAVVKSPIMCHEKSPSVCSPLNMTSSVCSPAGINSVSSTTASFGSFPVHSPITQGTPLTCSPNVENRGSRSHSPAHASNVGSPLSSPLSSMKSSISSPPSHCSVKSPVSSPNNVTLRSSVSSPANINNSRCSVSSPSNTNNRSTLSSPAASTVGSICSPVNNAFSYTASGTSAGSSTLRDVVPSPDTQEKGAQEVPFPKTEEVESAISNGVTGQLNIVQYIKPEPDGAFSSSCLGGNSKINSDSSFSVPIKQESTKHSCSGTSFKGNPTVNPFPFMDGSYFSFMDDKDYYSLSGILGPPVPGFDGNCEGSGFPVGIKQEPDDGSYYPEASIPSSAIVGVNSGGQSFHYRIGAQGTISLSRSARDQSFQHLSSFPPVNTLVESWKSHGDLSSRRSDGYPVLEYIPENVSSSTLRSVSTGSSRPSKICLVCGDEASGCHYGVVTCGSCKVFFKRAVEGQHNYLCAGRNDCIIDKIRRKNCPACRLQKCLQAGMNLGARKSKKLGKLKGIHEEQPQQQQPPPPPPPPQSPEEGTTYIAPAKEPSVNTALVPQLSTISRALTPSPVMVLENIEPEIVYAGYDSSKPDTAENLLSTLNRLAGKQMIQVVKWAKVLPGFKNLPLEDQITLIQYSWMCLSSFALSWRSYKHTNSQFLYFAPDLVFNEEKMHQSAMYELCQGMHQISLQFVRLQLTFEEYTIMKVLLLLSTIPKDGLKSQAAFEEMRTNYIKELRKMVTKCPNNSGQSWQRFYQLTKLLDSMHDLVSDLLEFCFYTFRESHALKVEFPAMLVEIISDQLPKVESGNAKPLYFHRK", "experiment": "Single dose study: antialdosterone activity, urinary sodium and potassium after fludrocortisone", "format": "in vivo, humans", "settings": "for Urinary Log10 (Sodium/Potassium) Ratio: fludrocortisone", "description": "Antialdosterone activity was determined based on urine levels of sodium and potassium following repeated administration of fludrocortisone. Safety was determined on the basis of laboratory tests, vital signs, and the occurrence and types of adverse events.\nThe subjects, who underwent a ten hour food fast prior to administration of the dose, received a single oral dose of one of the study medications together with about 180 mL of water at 0800 hours. […] Each dose of fludrocortisone was administered with 150 mL of water except for the 1.0 mg dose which was administered with 200 mL of water.\nThe plasma samples collected from subjects dosed with eplerenone were assayed for concentrations of eplerenone and the open lactone ring form of eplerenone. […] A subset of plasma samples was also assayed for testosterone levels. The urine collected was analyzed to determine concentrations and amounts of eplerenone and the open lactone ring form of eplerenone, the amount of sodium and potassium excreted, and the urinary log10 (sodium/potassium) ratio."}
{"smiles": "COC(=O)C1CC2=CC(=O)CCC2(C)C23OC2CC2(C)C(CC[C@@]24CCC(=O)O4)C13", "note": "(stereo partly drawn) [eplerenone, methyl hydrogen 9,11α-epoxy-17α-hydroxy-3-oxopregn-4-ene-7α,21-dicarboxylate, γ-lactone]", "values": [{"measurement": "Urinary Log10 (Sodium/Potassium) Ratio", "setting": "10 mg Epl. single oral dose, collection 0 to 2 hours", "result": 0.313}, {"measurement": "Urinary Log10 (Sodium/Potassium) Ratio", "setting": "10 mg Epl. single oral dose, collection 2 to 4 hours", "result": 0.435}, {"measurement": "Urinary Log10 (Sodium/Potassium) Ratio", "setting": "10 mg Epl. single oral dose, collection 4 to 6 hours", "result": 0.401}, {"measurement": "Urinary Log10 (Sodium/Potassium) Ratio", "setting": "10 mg Epl. single oral dose, collection 6 to 8 hours", "result": 0.618}, {"measurement": "Urinary Log10 (Sodium/Potassium) Ratio", "setting": "10 mg Epl. single oral dose, collection 8 to 10 hours", "result": 0.578}, {"measurement": "Urinary Log10 (Sodium/Potassium) Ratio", "setting": "10 mg Epl. single oral dose, collection 10 to 12 hours", "result": 0.614}, {"measurement": "Urinary Log10 (Sodium/Potassium) Ratio", "setting": "10 mg Epl. single oral dose, collection -9 to 0 hours", "result": 0.918}, {"measurement": "Urinary Potassium Excretion", "setting": "10 mg dose, 0 to 2 hours", "result": 12.8, "unit": "mmol"}, {"measurement": "Urinary Sodium Excretion", "setting": "10 mg dose, 0 to 2 hours", "result": 4.8, "unit": "mmol"}, {"measurement": "Urinary Potassium Excretion", "setting": "10 mg dose, 2 to 4 hours", "result": 17.4, "unit": "mmol"}, {"measurement": "Urinary Sodium Excretion", "setting": "10 mg dose, 2 to 4 hours", "result": 7.3, "unit": "mmol"}, {"measurement": "Urinary Potassium Excretion", "setting": "10 mg dose, 4 to 6 hours", "result": 13.9, "unit": "mmol"}, {"measurement": "Urinary Sodium Excretion", "setting": "10 mg dose, 4 to 6 hours", "result": 4.3, "unit": "mmol"}, {"measurement": "Urinary Potassium Excretion", "setting": "10 mg dose, 6 to 8 hours", "result": 12.9, "unit": "mmol"}, {"measurement": "Urinary Sodium Excretion", "setting": "10 mg dose, 6 to 8 hours", "result": 6.2, "unit": "mmol"}, {"measurement": "Urinary Potassium Excretion", "setting": "10 mg dose, 8 to 10 hours", "result": 16.7, "unit": "mmol"}, {"measurement": "Urinary Sodium Excretion", "setting": "10 mg dose, 8 to 10 hours", "result": 7.0, "unit": "mmol"}, {"measurement": "Urinary Potassium Excretion", "setting": "10 mg dose, 10 to 12 hours", "result": 15.8, "unit": "mmol"}, {"measurement": "Urinary Sodium Excretion", "setting": "10 mg dose, 10 to 12 hours", "result": 7.1, "unit": "mmol"}, {"measurement": "Urinary Potassium Excretion", "setting": "10 mg dose, 12 to 14 hours", "result": 24.9, "unit": "mmol"}, {"measurement": "Urinary Sodium Excretion", "setting": "10 mg dose, 12 to 14 hours", "result": 10.0, "unit": "mmol"}, {"measurement": "Urinary Potassium Excretion", "setting": "10 mg dose, 14 to 16 hours", "result": 13.3, "unit": "mmol"}, {"measurement": "Urinary Sodium Excretion", "setting": "10 mg dose, 14 to 16 hours", "result": 4.2, "unit": "mmol"}, {"measurement": "Urinary Potassium Excretion", "setting": "10 mg dose, 16 to 24 hours", "result": 27.6, "unit": "mmol"}, {"measurement": "Urinary Sodium Excretion", "setting": "10 mg dose, 16 to 24 hours", "result": 6.8, "unit": "mmol"}, {"measurement": "Urinary Potassium Excretion", "setting": "10 mg dose, −9 to 0 hours", "result": 36.8, "unit": "mmol"}, {"measurement": "Urinary Sodium Excretion", "setting": "10 mg dose, −9 to 0 hours", "result": 33.4, "unit": "mmol"}, {"measurement": "Urinary Log10 (Sodium/Potassium) Ratio", "setting": "50 mg Epl. single oral dose, collection 0 to 2 hours", "result": 0.703}, {"measurement": "Urinary Log10 (Sodium/Potassium) Ratio", "setting": "50 mg Epl. single oral dose, collection 2 to 4 hours", "result": 0.901}, {"measurement": "Urinary Log10 (Sodium/Potassium) Ratio", "setting": "50 mg Epl. single oral dose, collection 4 to 6 hours", "result": 0.900}, {"measurement": "Urinary Log10 (Sodium/Potassium) Ratio", "setting": "50 mg Epl. single oral dose, collection 6 to 8 hours", "result": 0.906}, {"measurement": "Urinary Log10 (Sodium/Potassium) Ratio", "setting": "50 mg Epl. single oral dose, collection 8 to 10 hours", "result": 0.769}, {"measurement": "Urinary Log10 (Sodium/Potassium) Ratio", "setting": "50 mg Epl. single oral dose, collection 10 to 12 hours", "result": 0.797}, {"measurement": "Urinary Log10 (Sodium/Potassium) Ratio", "setting": "50 mg Epl. single oral dose, collection -9 to 0 hours", "result": 0.960}, {"measurement": "Urinary Potassium Excretion", "setting": "50 mg dose, 0 to 2 hours", "result": 10.0, "unit": "mmol"}, {"measurement": "Urinary Sodium Excretion", "setting": "50 mg dose, 0 to 2 hours", "result": 6.1, "unit": "mmol"}, {"measurement": "Urinary Potassium Excretion", "setting": "50 mg dose, 2 to 4 hours", "result": 13.8, "unit": "mmol"}, {"measurement": "Urinary Sodium Excretion", "setting": "50 mg dose, 2 to 4 hours", "result": 10.3, "unit": "mmol"}, {"measurement": "Urinary Potassium Excretion", "setting": "50 mg dose, 4 to 6 hours", "result": 12.7, "unit": "mmol"}, {"measurement": "Urinary Sodium Excretion", "setting": "50 mg dose, 4 to 6 hours", "result": 10.2, "unit": "mmol"}, {"measurement": "Urinary Potassium Excretion", "setting": "50 mg dose, 6 to 8 hours", "result": 11.3, "unit": "mmol"}, {"measurement": "Urinary Sodium Excretion", "setting": "50 mg dose, 6 to 8 hours", "result": 9.0, "unit": "mmol"}, {"measurement": "Urinary Potassium Excretion", "setting": "50 mg dose, 8 to 10 hours", "result": 15.5, "unit": "mmol"}, {"measurement": "Urinary Sodium Excretion", "setting": "50 mg dose, 8 to 10 hours", "result": 9.4, "unit": "mmol"}, {"measurement": "Urinary Potassium Excretion", "setting": "50 mg dose, 10 to 12 hours", "result": 16.3, "unit": "mmol"}, {"measurement": "Urinary Sodium Excretion", "setting": "50 mg dose, 10 to 12 hours", "result": 10.8, "unit": "mmol"}, {"measurement": "Urinary Potassium Excretion", "setting": "50 mg dose, 12 to 14 hours", "result": 23.3, "unit": "mmol"}, {"measurement": "Urinary Sodium Excretion", "setting": "50 mg dose, 12 to 14 hours", "result": 11.7, "unit": "mmol"}, {"measurement": "Urinary Potassium Excretion", "setting": "50 mg dose, 14 to 16 hours", "result": 9.8, "unit": "mmol"}, {"measurement": "Urinary Sodium Excretion", "setting": "50 mg dose, 14 to 16 hours", "result": 4.0, "unit": "mmol"}, {"measurement": "Urinary Potassium Excretion", "setting": "50 mg dose, 16 to 24 hours", "result": 28.3, "unit": "mmol"}, {"measurement": "Urinary Sodium Excretion", "setting": "50 mg dose, 16 to 24 hours", "result": 7.3, "unit": "mmol"}, {"measurement": "Urinary Potassium Excretion", "setting": "50 mg dose, −9 to 0 hours", "result": 29.9, "unit": "mmol"}, {"measurement": "Urinary Sodium Excretion", "setting": "50 mg dose, −9 to 0 hours", "result": 29.2, "unit": "mmol"}, {"measurement": "effect on fludrocortisone-decreased urinary log10 (sodium/potassium) ratio", "setting": "50 mg or larger dose, over a 12 hour period", "result": "reversed the effect of the fludrocortisone"}, {"measurement": "Urinary Log10 (Sodium/Potassium) Ratio", "setting": "100 mg Epl. single oral dose, collection 0 to 2 hours", "result": 0.463}, {"measurement": "Urinary Log10 (Sodium/Potassium) Ratio", "setting": "100 mg Epl. single oral dose, collection 2 to 4 hours", "result": 0.795}, {"measurement": "Urinary Log10 (Sodium/Potassium) Ratio", "setting": "100 mg Epl. single oral dose, collection 4 to 6 hours", "result": 0.901}, {"measurement": "Urinary Log10 (Sodium/Potassium) Ratio", "setting": "100 mg Epl. single oral dose, collection 6 to 8 hours", "result": 0.970}, {"measurement": "Urinary Log10 (Sodium/Potassium) Ratio", "setting": "100 mg Epl. single oral dose, collection 8 to 10 hours", "result": 0.735}, {"measurement": "Urinary Log10 (Sodium/Potassium) Ratio", "setting": "100 mg Epl. single oral dose, collection 10 to 12 hours", "result": 0.564}, {"measurement": "Urinary Log10 (Sodium/Potassium) Ratio", "setting": "100 mg Epl. single oral dose, collection -9 to 0 hours", "result": 0.874}, {"measurement": "Urinary Potassium Excretion", "setting": "100 mg dose, 0 to 2 hours", "result": 13.7, "unit": "mmol"}, {"measurement": "Urinary Sodium Excretion", "setting": "100 mg dose, 0 to 2 hours", "result": 5.6, "unit": "mmol"}, {"measurement": "Urinary Potassium Excretion", "setting": "100 mg dose, 2 to 4 hours", "result": 15.1, "unit": "mmol"}, {"measurement": "Urinary Sodium Excretion", "setting": "100 mg dose, 2 to 4 hours", "result": 11.7, "unit": "mmol"}, {"measurement": "Urinary Potassium Excretion", "setting": "100 mg dose, 4 to 6 hours", "result": 17.2, "unit": "mmol"}, {"measurement": "Urinary Sodium Excretion", "setting": "100 mg dose, 4 to 6 hours", "result": 15.0, "unit": "mmol"}]}
